Laboratory results from patent US20250188387A1, “LOW TOXICITY SURFACTANT BOOSTER COMPOSITIONS FOR FILTRATION MEMBRANE CLEANING APPLICATIONS” (ECOLAB USA INC., priority 2023, published 2025).

What was measured:
[1] = Toxicity screening of surfactants by derived no-effect level (DNEL); settings: derived from toxicological studies supplied by the surfactant manufacturer, with assessment factors
From the text: As referred to herein, a DNEL is substance specific and is commonly used as a health risk-based threshold in toxicological risk assessments. As a point of departure for the derivation of a DNEL varying toxicological studies are used, supplied by the surfactant manufacturer. […] Depending on evaluated endpoint and different parameters of these studies certain assessment factors are applied to derivate the DNEL. Used herein are scientifically justified and publicly recognized methods (e.g. by EFSA or ECETOC) for the determination of these assessment factors.
Surfactants were screened for lower toxicity levels.

[2] = Redeposition of ghee onto coupons; settings: pH 11, 50° C., 1 g ghee in 600 g water, 10 minutes, FIG. 5
Protocol: Each coupon was new and conditioned by soaking in methyl alcohol for 30 seconds, then placed in 60° C. oven for 30 minutes. 600 g of 0 grain water was heated in a 1000 ml beaker to 50° C. The pH of the mixture was adjusted to 11 using NaOH. The chemistry was added to the solution and mixed for one minute. Additionally, 1 g of melted ghee was added to the solution and mixed for one minute. Three cleaned and weighed coupons were added using a coupon holder. After 10 minutes, the coupons were removed and dipped in DI water once. Coupons were left to dry overnight and weighed the following day. […] Therefore, after the soil is removed it is less likely to be redeposited onto the surface again.

Row | Substance | DNEL (derived no-effect level) [1] | redeposition of butterfat onto coupons [2]
1 | Nonylphenol ethoxylate [NPE] | less than 1 | 
2 | Alkyl polyglucosides [APGs] |  | helps prevent a larger amount of butterfat from being deposited
